Measurements from patent US20220389061A1, “IMMUNOMODULATORS” (priority 2019, published 2022).
Starred links: 1 amine or outer side, 2 acyl side, 3 side chain; linkers in the order of their positions; H or OH if unused. Positions of bridges follow the written chain, without caps; N, C: chain ends. Non-standard residues stand in square brackets, D forms with d. Residues, ends and D or L forms follow the SMILES beside them. Groups on a side chain read outwards from the residue. *: point of attachment. Trp(1-CH2CO2Me) = COC(=O)Cn1cc(C[C@H](N)C(=O)O)c2ccccc21; Trp(1-CH2COOH) = N[C@@H](Cc1cn(CC(=O)O)c2ccccc12)C(=O)O; X41 = N=C(NCC[C@H](N[*:1])C(=O)[*:2])c1ccccc1; X40 = N=C(NC[C@H](N[*:1])C(=O)[*:2])c1ccccc1; X68 = CC1(C)CCC(C)(C)c2cc(N*)ccc21; Hyp = O=C(O)[C@@H]1C[C@@H](O)CN1; X84 = COc1cc(NC(=S)*)cc(OC)c1OC; X28 = Cc1ccc(Cl)c(NC(=S)*)c1Cl; X96 = Fc1cc(F)c(NC(=S)*)c(F)c1; X29 = c1ccc(Oc2ccc(N*)cc2)cc1; NH(3-MeOPh) = COc1cccc(N*)c1; NMeNle = CCCC[C@H](NC)C(=O)O; X7 = S=C(Nc1ccc2cc[nH]c2c1)*; X9 = Fc1ccc(NC(=S)*)c(Cl)c1; X5 = S=C(Nc1cccc2ccccc12)*; X6 = CCCCCCCOc1ccc(N*)cc1; NMeA = CN[C@@H](C)C(=O)O; Dab = NCC[C@H](N)C(=O)O; X76 = Fc1cc(N*)cc(F)c1F; Dap = NC[C@H](N)C(=O)O; X89 = O=C(Oc1ccccc1)*; CO = O=C([*:1])[*:2]

Each compound was assayed against T1, PD-1/PD-L1 (Homo sapiens, UniProt Q9NZQ7) (assay: PD-1/PD-L1 Homogenous Time-Resolved Fluorescence (HTRF) binding assay). Settings: not given.
T1 construct: TVMV protease site linker (C); made in house; host or cells: HEK293T cells
T1 sequence (Q9NZQ7 18-239): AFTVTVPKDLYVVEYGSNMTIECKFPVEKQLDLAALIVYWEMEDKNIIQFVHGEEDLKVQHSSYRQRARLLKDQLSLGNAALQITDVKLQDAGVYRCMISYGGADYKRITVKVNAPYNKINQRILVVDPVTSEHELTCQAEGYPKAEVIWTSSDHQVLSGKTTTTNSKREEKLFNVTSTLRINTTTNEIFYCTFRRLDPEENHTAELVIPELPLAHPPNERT
Summary of the method: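 Compounds preincubated 15 min with PD-L1-His (10 nM final), then PD-1-Ig (20 nM final) added for 15 min in dPBS with 0.1% BSA, 0.05% Tween-20. Detection by Eu-cryptate anti-Ig (1 nM) and APC anti-His (20 nM) HTRF.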

With CCCC[C@H]1C(=O)N(C)[C@@H](CCCC)C(=O)N[C@@H](CC(C)C)C(=O)N[C@H](C(=O)NCC(N)=O)CSCC(=O)N[C@@H](Cc2ccc(O)cc2)C(=O)N(C)[C@@H](C)C(=O)N[C@@H](CC(N)=O)C(=O)N2CCC[C@H]2C(=O)N[C@@H](CNC(=O)Oc2ccccc2)C(=O)N[C@@H](CC(C)C)C(=O)N2C[C@H](O)C[C@H]2C(=O)N[C@@H](Cc2c[nH]c3ccccc23)C(=O)N[C@@H](CCNC(=O)Oc2ccccc2)C(=O)N[C@@H](Cc2cn(CC(=O)OC)c3ccccc23)C(=O)N1C [Example 1013] ({CH2CO}-Y[NMeA]NP[Dap](X89)L[Hyp]W[Dab](X89)[Trp(1-CH2CO2Me)][NMeNle][NMeNle]LCG-NH2; thioether N-14) the IC50 was 5.2 nM.

Same assay, conditions: PD-L1-His 10 nM pre-incubated with inhibitor, PD-1-Ig 20 nM; read-out: HTRF IC50

CCCC[C@H]1C(=O)N(C)[C@@H](CCCC)C(=O)N[C@@H](CC(C)C)C(=O)N[C@H](C(=O)NCC(N)=O)CSCC(=O)N[C@@H](Cc2ccc(O)cc2)C(=O)N(C)[C@@H](C)C(=O)N[C@@H](CC(N)=O)C(=O)N2CCC[C@H]2C(=O)N[C@@H](CNC(=S)Nc2ccc3cc[nH]c3c2)C(=O)N[C@@H](CC(C)C)C(=O)N2C[C@H](O)C[C@H]2C(=O)N[C@@H](Cc2c[nH]c3ccccc23)C(=O)N[C@@H](CCNC(=S)Nc2ccc3cc[nH]c3c2)C(=O)N[C@@H](Cc2cn(CC(=O)O)c3ccccc23)C(=O)N1C [Example 3068] ({CH2CO}-Y[NMeA]NP[Dap](X7)L[Hyp]W[Dab](X7)[Trp(1-CH2COOH)][NMeNle][NMeNle]LCG-NH2; thioether N-14) and CCCC[C@H]1C(=O)N(C)[C@@H](CCCC)C(=O)N[C@@H](CC(C)C)C(=O)N[C@H](C(=O)NCC(N)=O)CSCC(=O)N[C@@H](Cc2ccc(O)cc2)C(=O)N(C)[C@@H](C)C(=O)N[C@@H](CC(N)=O)C(=O)N2CCC[C@H]2C(=O)N[C@@H](CNC(=S)Nc2cccc3ccccc23)C(=O)N[C@@H](CC(C)C)C(=O)N2C[C@H](O)C[C@H]2C(=O)N[C@@H](Cc2c[nH]c3ccccc23)C(=O)N[C@@H](CCNC(=S)Nc2cccc3ccccc23)C(=O)N[C@@H](Cc2cn(CC(=O)O)c3ccccc23)C(=O)N1C [Example 3006] ({CH2CO}-Y[NMeA]NP[Dap](X5)L[Hyp]W[Dab](X5)[Trp(1-CH2COOH)][NMeNle][NMeNle]LCG-NH2; thioether N-14) are within 1.5-fold of each other in IC50: 2 nM for the first, 2.8 nM for the second.

Compared with CCCCCCCOc1ccc(NC(=O)NCC[C@@H]2NC(=O)[C@H](Cc3c[nH]c4ccccc34)NC(=O)[C@@H]3C[C@@H](O)CN3C(=O)[C@H](CC(C)C)NC(=O)[C@H](CNC(=O)Nc3ccc(OCCCCCCC)cc3)NC(=O)[C@@H]3CCCN3C(=O)[C@H](CC(N)=O)NC(=O)[C@H](C)N(C)C(=O)[C@H](Cc3ccc(O)cc3)NC(=O)CSC[C@@H](C(=O)NCC(N)=O)NC(=O)[C@H](CC(C)C)NC(=O)[C@H](CCCC)N(C)C(=O)[C@H](CCCC)N(C)C(=O)[C@H](Cc3cn(CC(=O)O)c4ccccc34)NC2=O)cc1 [Example 1090] ({CH2CO}-Y[NMeA]NP[Dap]([CO-X6])L[Hyp]W[Dab]([CO-X6])[Trp(1-CH2COOH)][NMeNle][NMeNle]LCG-NH2; thioether N-14), CCCC[C@H]1C(=O)N(C)[C@@H](CCCC)C(=O)N[C@@H](CC(C)C)C(=O)N[C@H](C(=O)NCC(N)=O)CSCC(=O)N[C@@H](Cc2ccc(O)cc2)C(=O)N(C)[C@@H](C)C(=O)N[C@@H](CC(N)=O)C(=O)N2CCC[C@H]2C(=O)N[C@@H](CNC(=O)Nc2cccc(OC)c2)C(=O)N[C@@H](CC(C)C)C(=O)N2C[C@H](O)C[C@H]2C(=O)N[C@@H](Cc2c[nH]c3ccccc23)C(=O)N[C@@H](CCNC(=O)Nc2cccc(OC)c2)C(=O)N[C@@H](Cc2cn(CC(=O)O)c3ccccc23)C(=O)N1C [Example 1140] ({CH2CO}-Y[NMeA]NP[Dap]([CO-NH(3-MeOPh)])L[Hyp]W[Dab]([CO-NH(3-MeOPh)])[Trp(1-CH2COOH)][NMeNle][NMeNle]LCG-NH2; thioether N-14) is 40-fold lower in IC50: 242 nM for the first, 6 nM for the second.

Going from CCCC[C@H]1C(=O)N(C)[C@@H](CCCC)C(=O)N[C@@H](CC(C)C)C(=O)N[C@H](C(=O)NCC(N)=O)CSCC(=O)N[C@@H](Cc2ccc(O)cc2)C(=O)N(C)[C@@H](C)C(=O)N[C@@H](CC(N)=O)C(=O)N2CCC[C@H]2C(=O)N[C@@H](CNC(=O)Nc2ccc(Oc3ccccc3)cc2)C(=O)N[C@@H](CC(C)C)C(=O)N2C[C@H](O)C[C@H]2C(=O)N[C@@H](Cc2c[nH]c3ccccc23)C(=O)N[C@@H](CCNC(=O)Nc2ccc(Oc3ccccc3)cc2)C(=O)N[C@@H](Cc2cn(CC(=O)O)c3ccccc23)C(=O)N1C [Example 1023] ({CH2CO}-Y[NMeA]NP[Dap]([CO-X29])L[Hyp]W[Dab]([CO-X29])[Trp(1-CH2COOH)][NMeNle][NMeNle]LCG-NH2; thioether N-14) to CCCC[C@H]1C(=O)N(C)[C@@H](CCCC)C(=O)N[C@@H](CC(C)C)C(=O)N[C@H](C(=O)NCC(N)=O)CSCC(=O)N[C@@H](Cc2ccc(O)cc2)C(=O)N(C)[C@@H](C)C(=O)N[C@@H](CC(N)=O)C(=O)N2CCC[C@H]2C(=O)N[C@@H](CNC(=N)c2ccccc2)C(=O)N[C@@H](CC(C)C)C(=O)N2C[C@H](O)C[C@H]2C(=O)N[C@@H](Cc2c[nH]c3ccccc23)C(=O)N[C@@H](CCNC(=N)c2ccccc2)C(=O)N[C@@H](Cc2cn(CC(=O)O)c3ccccc23)C(=O)N1C [Example 1019] ({CH2CO}-Y[NMeA]NP[X40]L[Hyp]W[X41][Trp(1-CH2COOH)][NMeNle][NMeNle]LCG-NH2; thioether N-14), the IC50 falls from 32 nM to 3.4 nM (9.4-fold). The second is the more potent here.

Compared with CCCC[C@H]1C(=O)N(C)[C@@H](CCCC)C(=O)N[C@@H](CC(C)C)C(=O)N[C@H](C(=O)NCC(N)=O)CSCC(=O)N[C@@H](Cc2ccc(O)cc2)C(=O)N(C)[C@@H](C)C(=O)N[C@@H](CC(N)=O)C(=O)N2CCC[C@H]2C(=O)N[C@@H](CNC(=S)Nc2c(Cl)ccc(C)c2Cl)C(=O)N[C@@H](CC(C)C)C(=O)N2C[C@H](O)C[C@H]2C(=O)N[C@@H](Cc2c[nH]c3ccccc23)C(=O)N[C@@H](CCN)C(=O)N[C@@H](Cc2cn(CC(=O)O)c3ccccc23)C(=O)N1C [Example 1073] ({CH2CO}-Y[NMeA]NP[Dap](X28)L[Hyp]W[Dab][Trp(1-CH2COOH)][NMeNle][NMeNle]LCG-NH2; thioether N-14), CCCC[C@H]1C(=O)N(C)[C@@H](CCCC)C(=O)N[C@@H](CC(C)C)C(=O)N[C@H](C(=O)NCC(N)=O)CSCC(=O)N[C@@H](Cc2ccc(O)cc2)C(=O)N(C)[C@@H](C)C(=O)N[C@@H](CC(N)=O)C(=O)N2CCC[C@H]2C(=O)N[C@@H](CNC(=S)Nc2ccc(F)cc2Cl)C(=O)N[C@@H](CC(C)C)C(=O)N2C[C@H](O)C[C@H]2C(=O)N[C@@H](Cc2c[nH]c3ccccc23)C(=O)N[C@@H](CCN)C(=O)N[C@@H](Cc2cn(CC(=O)O)c3ccccc23)C(=O)N1C [Example 1030] ({CH2CO}-Y[NMeA]NP[Dap](X9)L[Hyp]W[Dab][Trp(1-CH2COOH)][NMeNle][NMeNle]LCG-NH2; thioether N-14) is 3-fold lower in IC50: 7.9 nM for the first, 2.6 nM for the second.

First: CCCC[C@H]1C(=O)N(C)[C@@H](CCCC)C(=O)N[C@@H](CC(C)C)C(=O)N[C@H](C(=O)NCC(N)=O)CSCC(=O)N[C@@H](Cc2ccc(O)cc2)C(=O)N(C)[C@@H](C)C(=O)N[C@@H](CC(N)=O)C(=O)N2CCC[C@H]2C(=O)N[C@@H](CNC(=S)Nc2cc(OC)c(OC)c(OC)c2)C(=O)N[C@@H](CC(C)C)C(=O)N2C[C@H](O)C[C@H]2C(=O)N[C@@H](Cc2c[nH]c3ccccc23)C(=O)N[C@@H](CCNC(=S)Nc2cc(OC)c(OC)c(OC)c2)C(=O)N[C@@H](Cc2cn(CC(=O)O)c3ccccc23)C(=O)N1C [Example 1083] ({CH2CO}-Y[NMeA]NP[Dap](X84)L[Hyp]W[Dab](X84)[Trp(1-CH2COOH)][NMeNle][NMeNle]LCG-NH2; thioether N-14)
Second: CCCC[C@H]1C(=O)N(C)[C@@H](CCCC)C(=O)N[C@@H](CC(C)C)C(=O)N[C@H](C(=O)NCC(N)=O)CSCC(=O)N[C@@H](Cc2ccc(O)cc2)C(=O)N(C)[C@@H](C)C(=O)N[C@@H](CC(N)=O)C(=O)N2CCC[C@H]2C(=O)N[C@@H](CNC(=S)Nc2c(F)cc(F)cc2F)C(=O)N[C@@H](CC(C)C)C(=O)N2C[C@H](O)C[C@H]2C(=O)N[C@@H](Cc2c[nH]c3ccccc23)C(=O)N[C@@H](CCNC(=S)Nc2c(F)cc(F)cc2F)C(=O)N[C@@H](Cc2cn(CC(=O)O)c3ccccc23)C(=O)N1C [Example 1044] ({CH2CO}-Y[NMeA]NP[Dap](X96)L[Hyp]W[Dab](X96)[Trp(1-CH2COOH)][NMeNle][NMeNle]LCG-NH2; thioether N-14)
The IC50 of the first is 5.5-fold lower: 0.6 nM for the first, 3.3 nM for the second. The first is the more potent here.

CCCC[C@H]1C(=O)N(C)[C@@H](CCCC)C(=O)N[C@@H](CC(C)C)C(=O)N[C@H](C(=O)NCC(N)=O)CSCC(=O)N[C@@H](Cc2ccc(O)cc2)C(=O)N(C)[C@@H](C)C(=O)N[C@@H](CC(N)=O)C(=O)N2CCC[C@H]2C(=O)N[C@@H](CNC(=O)Nc2ccc3c(c2)C(C)(C)CCC3(C)C)C(=O)N[C@@H](CC(C)C)C(=O)N2C[C@H](O)C[C@H]2C(=O)N[C@@H](Cc2c[nH]c3ccccc23)C(=O)N[C@@H](CCN)C(=O)N[C@@H](Cc2cn(CC(=O)O)c3ccccc23)C(=O)N1C [Example 3046] ({CH2CO}-Y[NMeA]NP[Dap]([CO-X68])L[Hyp]W[Dab][Trp(1-CH2COOH)][NMeNle][NMeNle]LCG-NH2; thioether N-14) and CCCC[C@H]1C(=O)N(C)[C@@H](CCCC)C(=O)N[C@@H](CC(C)C)C(=O)N[C@H](C(=O)NCC(N)=O)CSCC(=O)N[C@@H](Cc2ccc(O)cc2)C(=O)N(C)[C@@H](C)C(=O)N[C@@H](CC(N)=O)C(=O)N2CCC[C@H]2C(=O)N[C@@H](CNC(=O)Nc2cc(F)c(F)c(F)c2)C(=O)N[C@@H](CC(C)C)C(=O)N2C[C@H](O)C[C@H]2C(=O)N[C@@H](Cc2c[nH]c3ccccc23)C(=O)N[C@@H](CCNC(=O)Nc2cc(F)c(F)c(F)c2)C(=O)N[C@@H](Cc2cn(CC(=O)O)c3ccccc23)C(=O)N1C [Example 1012] ({CH2CO}-Y[NMeA]NP[Dap]([CO-X76])L[Hyp]W[Dab]([CO-X76])[Trp(1-CH2COOH)][NMeNle][NMeNle]LCG-NH2; thioether N-14) are within 1.5-fold of each other in IC50: 3.3 nM for the first, 4.8 nM for the second.
